Results reported in patent publication US9056832B2, “Pyridine compounds and the users thereof” (Purdue Pharma L.P., priority 2010, dated 2015).
Like-named read-outs stand apart in the source and are kept apart here.

Tests used:
human Nav1.7 = human Nav1.7 (Homo sapiens (Human), UniProt Q15858); assay: FLIPR or FLIPR TETRA sodium dye assay with KCl and test article pre-incubation; type: cell-based; settings: read-out: Nav1.7 IC50 (μM) ± SEM
[1] = tested on: neuropathic hyperalgesia in rats; assay: Seltzer model (partial sciatic nerve ligation) of neuropathic pain, paw withdrawal threshold; type: in vivo; settings: 30 mg/kg p.o., rat; for Time post-dose (h) with statistically significant increase in paw withdrawal threshold: Seltzer model, assessed 1, 3 and 5 h after administration
Procedure: Test Animals: Each experiment uses rats weighing between 200-260 g at the start of the experiment. The rats are group-housed and have free access to food and water at all times, except prior to oral administration of a test compound when food is removed for 16 hours before dosing. A control group acts as a comparison to rats treated with a compound of Formulae I-XXXIII. The control group is administered the carrier as used for the test compound. The volume of carrier administered to the control group is the same as the volume of carrier and test compound administered to the test group.
In the Seltzer model, the partial sciatic nerve ligation model of neuropathic pain was used to produce neuropathic hyperalgesia in rats (Seltzer et al., Pain 43:205-218 (1990)). Partial ligation of the left sciatic nerve was performed under inhalation anesthesia, e.g., isoflurane/O2. Following induction of anesthesia, the left thigh of the rat was shaved and the sciatic nerve exposed at high thigh level through a small incision and was carefully cleared of surrounding connective tissues at a site near the trocanther just distal to the point at which the posterior biceps semitendinosus nerve branches off of the common sciatic nerve. A 7-0 silk suture was inserted into the nerve, e.g., with a ⅜ curved, reversed-cutting mini-needle, and tightly ligated so that the dorsal ⅓ to ½ of the nerve thickness was held within the ligature. The wound was closed, e.g., with a single muscle suture (4-0 nylon (Vicryl)) and vetbond tissue glue. Following surgery, the wound area was dusted with antibiotic powder. Sham-treated rats undergo an identical surgical procedure except that the sciatic nerve is not manipulated. Following surgery, animals were weighed and placed on a warm pad until they recovered from anesthesia. Animals were then returned to their home cages until behavioral testing began. The animals were assessed for response to noxious mechanical stimuli by determining PWT, as described below, prior to surgery (baseline), then immediately prior to and 1, 3, and 5 hours after drug administration for rear paw of the animal. Percentage reversal of neuropathic hyperalgesia is defined as: […]
The following compounds were tested and produced a statistically significant increase in paw withdrawal threshold when administered at 30 mg/kg p.o. in the Seltzer model of neuropathic pain at the time points indicated:
Mechanical Hyperalgesia: Sensitivity to noxious mechanical stimuli can be measured in animals using the paw pressure test to assess mechanical hyperalgesia. In rats, hind paw withdrawal thresholds (“PWT”), measured in grams, in response to a noxious mechanical stimulus are determined using an analgesymeter (Model 7200, commercially available from Ugo Basile of Italy), as described in Stein (Biochemistry & Behavior 31: 451-455 (1988)). The rat's paw is placed on a small platform, and weight is applied in a graded manner up to a maximum of 250 grams. The endpoint is taken as the weight at which the paw is completely withdrawn. PWT is determined once for each rat at each time point. PWT can be measured only in the injured paw, or in both the injured and non-injured paw. In one non-limiting embodiment, mechanical hyperalgesia associated with nerve injury induced pain (neuropathic pain) can be assessed in rats. Rats are tested prior to surgery to determine a baseline, or normal, PWT. Rats are tested again 2 to 3 weeks post-surgery, prior to, and at different times after (e.g. 1, 3, 5 and 24 hr) drug administration.

[2] = recombinant human Nav1.7 in HEK293 cells, CoroNa Green sodium dye, veratridine + scorpion venom

human Nav1.7, sequence (Q15858 other isoform, or with tags, fused parts or gaps): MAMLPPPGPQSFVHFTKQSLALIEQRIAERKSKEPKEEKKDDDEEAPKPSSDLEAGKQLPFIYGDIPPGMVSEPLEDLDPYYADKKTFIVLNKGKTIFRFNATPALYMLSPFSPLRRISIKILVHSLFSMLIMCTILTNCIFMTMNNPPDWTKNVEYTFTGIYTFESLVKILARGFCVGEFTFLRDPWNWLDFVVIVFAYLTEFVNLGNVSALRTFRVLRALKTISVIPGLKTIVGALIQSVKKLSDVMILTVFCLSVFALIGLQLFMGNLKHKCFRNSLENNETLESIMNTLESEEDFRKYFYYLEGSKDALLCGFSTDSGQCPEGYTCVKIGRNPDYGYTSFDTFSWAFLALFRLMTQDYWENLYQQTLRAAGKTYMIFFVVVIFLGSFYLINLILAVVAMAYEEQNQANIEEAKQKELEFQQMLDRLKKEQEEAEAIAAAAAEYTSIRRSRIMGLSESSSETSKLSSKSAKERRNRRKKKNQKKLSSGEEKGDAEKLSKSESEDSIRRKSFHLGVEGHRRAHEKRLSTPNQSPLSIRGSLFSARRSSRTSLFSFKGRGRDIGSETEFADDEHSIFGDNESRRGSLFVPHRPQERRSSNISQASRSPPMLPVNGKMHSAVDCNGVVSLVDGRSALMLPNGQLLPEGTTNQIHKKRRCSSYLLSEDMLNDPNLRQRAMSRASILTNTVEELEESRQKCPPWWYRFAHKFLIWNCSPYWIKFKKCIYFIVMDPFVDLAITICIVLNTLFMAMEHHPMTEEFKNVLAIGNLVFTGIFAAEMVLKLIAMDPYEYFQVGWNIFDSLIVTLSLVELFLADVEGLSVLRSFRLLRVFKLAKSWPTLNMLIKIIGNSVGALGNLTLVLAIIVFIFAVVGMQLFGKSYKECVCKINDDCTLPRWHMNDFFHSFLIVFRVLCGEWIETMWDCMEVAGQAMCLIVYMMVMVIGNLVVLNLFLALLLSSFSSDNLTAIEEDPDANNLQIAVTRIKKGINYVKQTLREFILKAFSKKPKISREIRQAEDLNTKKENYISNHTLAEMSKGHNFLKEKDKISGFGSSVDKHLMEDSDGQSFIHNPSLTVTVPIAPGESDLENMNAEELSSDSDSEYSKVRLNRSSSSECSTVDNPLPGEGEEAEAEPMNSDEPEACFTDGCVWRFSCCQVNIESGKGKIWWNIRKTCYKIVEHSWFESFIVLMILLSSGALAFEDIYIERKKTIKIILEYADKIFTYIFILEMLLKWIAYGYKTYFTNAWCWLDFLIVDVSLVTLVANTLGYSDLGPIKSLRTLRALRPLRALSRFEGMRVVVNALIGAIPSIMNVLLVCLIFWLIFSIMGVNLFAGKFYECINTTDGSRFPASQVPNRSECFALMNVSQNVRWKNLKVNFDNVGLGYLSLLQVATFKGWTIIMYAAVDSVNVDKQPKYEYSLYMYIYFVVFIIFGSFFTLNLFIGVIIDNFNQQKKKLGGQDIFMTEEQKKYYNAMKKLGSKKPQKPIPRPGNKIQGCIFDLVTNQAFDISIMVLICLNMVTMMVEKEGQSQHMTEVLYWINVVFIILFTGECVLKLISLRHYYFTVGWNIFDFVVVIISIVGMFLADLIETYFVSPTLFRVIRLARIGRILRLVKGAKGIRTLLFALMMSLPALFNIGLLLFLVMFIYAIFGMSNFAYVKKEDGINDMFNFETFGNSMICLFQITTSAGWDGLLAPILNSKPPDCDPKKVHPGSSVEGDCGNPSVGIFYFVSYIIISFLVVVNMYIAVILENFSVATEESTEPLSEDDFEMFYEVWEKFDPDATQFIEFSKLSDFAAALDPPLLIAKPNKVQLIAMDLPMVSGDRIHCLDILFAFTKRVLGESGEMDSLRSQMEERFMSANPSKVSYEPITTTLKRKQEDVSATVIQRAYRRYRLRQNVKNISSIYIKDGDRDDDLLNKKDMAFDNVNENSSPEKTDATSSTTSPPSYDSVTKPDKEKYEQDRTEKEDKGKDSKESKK

OC[C@H](O)c1cccc(-c2ccc(Oc3ccc(C(F)(F)F)cc3)cc2)n1 [compound 5, (R)-1-(6-(4-(4-(trifluoromethyl)phenoxy)phenyl)pyridin-2-yl)ethane-1,2-diol] was tested, and the IC50 (human Nav1.7) was 0.16 ± 0.07 µM and the “Time post-dose (h) with statistically significant increase in paw withdrawal threshold” value [1] was 1 h.

N#Cc1cc(Oc2ccc(-c3cccc([C@H](O)CO)n3)cc2)ccc1C(F)(F)F [compound 18, (S)-5-(4-(6-(1,2-dihydroxyethyl)pyridin-2-yl)phenoxy)-2-(trifluoromethyl) benzonitrile] was tested, and the IC50 (human Nav1.7) was 2.8 ± 0.12 µM and the “Time post-dose (h) with statistically significant increase in paw withdrawal threshold” value [1] was 1 h.

With O=C1NCCN1CCNCc1cccc(-c2ccc(Oc3ccc(C(F)(F)F)cn3)cc2)n1 [compound 68, 1-(2-(((6-(4-((5-(trifluoromethyl)pyridin-2-yl)oxy)phenyl)pyridin-2-yl)methyl)amino)ethyl) imidazolidin-2-one] the IC50 (human Nav1.7; [2]) was 0.18 ± 0.09 µM and the “Time post-dose (h) with statistically significant increase in paw withdrawal threshold” value [1] was 1 h.

For N#Cc1cc(C(F)(F)F)ccc1Oc1ccc(-c2cccc(CNCCN3CCNC3=O)n2)cc1 [compound 63, 2-(4-(6-(((2-(2-oxoimidazolidin-1-yl)ethyl)amino)methyl)pyridin-2-yl)phenoxy)-5-(trifluoromethyl) benzonitrile], the IC50 (human Nav1.7; [2]) was 0.09 ± 0.03 µM and the “increase in paw withdrawal threshold in the Seltzer model” value ([1]; vehicle 10% Tween 80 in water) was “did not produce a statistically significant increase”.

With NC(=O)c1cc([C@H](O)CO)cc(-c2ccc(Oc3ccc(C(F)(F)F)cc3)cc2)n1 [compound 30, (S)-4-(1,2-dihydroxyethyl)-6-(4-(4-(trifluoromethyl)phenoxy)phenyl) picolinamide] the IC50 (human Nav1.7; [2]) was 0.24 ± 0.07 µM and the “Time post-dose (h) with statistically significant increase in paw withdrawal threshold” value [1] was 1 h.

In the case of NC(=O)c1cc([C@@H](O)CO)cc(-c2ccc(Oc3ccc(F)cc3)cc2)n1 [compound 40, (R)-4-(1,2-dihydroxyethyl)-6-(4-(4-fluorophenoxy)phenyl)picolinamide], the “Time post-dose (h) with statistically significant increase in paw withdrawal threshold” value [1] is reported as 1 h.
